Literature values in patent publication US20170281506A1, “COMPOSITION FOR TOPICAL APPLICATION FOR PREVENTING HAIR LOSS AND STIMULATING HAIR GROWTH” (priority 2011, published 2017).

Tested on: men
Conditions: oral, treated constantly for two years

CC(C)(C)NC(=O)[C@H]1CC[C@H]2[C@@H]3CC[C@H]4NC(=O)C=C[C@]4(C)[C@H]3CC[C@]12C [Finasteride, finasteride]
participants who maintained or increased the number of hairs after the treatment: 83%
participants who showed no hair loss: 17%
